Measurements as given in US20180346731A1, “Formation of Stable Pyranoanthocyanins, and Uses Thereof as Sources of Natural Color” (Ohio State Innovation Foundation, priority 2017, published 2018).

Test: HPLC monitoring of pigment peaks with ascorbic acid
Type: physicochemical
Method: Prior to experimentation, pigments were evaluated for purity by using an analytical HPLC only different from the previously listed one by the use of different pumps (LC-20AD, Shimadzu, Md., US). Purified pigments were filtered using the Phenex RC 0.45 μm membranes. A binary system with 1 mL/min flow rate was used: solvent A: 4.5% formic acid in HPLC grade water and solvent B: HPLC grade acetonitrile. The gradient began with an isocratic flow of 6% solvent B for 17 minutes (elution of primary anthocyanins), increasing to 15% solvent B by 45 minutes (elution of primary pyranoanthocyanins), and to 40% solvent B by 50 minutes. A 10 μL injection volume was loaded onto a Phenomenex Kinetix 5 μm EVO C18 100 A. 150×4.6 mm column and Phenomenex Ultra UHPLC EVO C18 guard cartridge attached.
The semi-purified chokeberry extract, the isolated cyanidin-3-galactoside, and the purified 5-carboxypyranocyanidin-3-galactoside were diluted in pH 3.0 citrate buffer (0.1 M adjusted with HCl) until an absorbance of 1.0 at their respective λmax was reached. Levels of AA of 250, 500, and 1000 mg/L were added using a concentrated ascorbic acid stock solution, and a control consisting of each pigment with the absence of AA was maintained. The control consisted of the pigment in the buffer in the absence of AA. An additional test was performed with the same model juice using hydrogen peroxide, a known degradation product of AA. To determine if AA bleaching was due to formation of H2O2, direct addition of it was investigated. In place of added AA, a 62.2 μL of a 0.3% peroxide solution was added to match the molar equivalency of the 500 mg/L AA level, which was 2.84 mM.
All samples were brought to the same final volume with additional citrate buffer. […] Samples were stored in the dark at 25° C. in an incubator. UV-Vis spectrophotometry, colorimetry, and HPLC analyses were conducted over a 5 day period following the addition of ascorbic acid or hydrogen peroxide. UV-Vis spectral data was collected every hour for the first 8 hours, and then at 12 hr, and daily from that point on for 5 days. […] HPLC analyses were conducted on days 0, 1, 3, and 5. All treatments were run in triplicate.
Prepared solutions were monitored to determine the formation of potential degradation products or profile changes. Using the analytical HPLC system and conditions described, chromatograms were monitored with the max plot (260-700 nm), 490 nm (near λmax of 5-carboxypyranocyanidin-3-galactoside), and 520 nm (near ma of cyanidin-3-galactoside). A max plot of 470-520 nm was later added to standardize changes in the AUC for all three pigments and their degradation products.

Compound: OC[C@H]1O[C@@H](Oc2cc3c(O)cc(O)cc3[o+]c2-c2ccc(O)c(O)c2)[C@H](O)[C@@H](O)[C@H]1O [Cyanidin-3-galactoside, cyanidin-3-galactoside]
- target peaks left after 1 day (1000 mg/L AA, HPLC): 2%
- reduction of pigment peak by day 1 (1 g/L AA, HPLC AUC): 91%
- reduction of pigment peak by day 5 (1 g/L AA, HPLC AUC): > 99%
